From patent publication US5157052A, “Method for inhibiting IgE production” (priority 1990, dated 1992)

Tested on: IgE
Experiment: Serum IgE response induced by FF1-4D5 + H∂A1 anti-IgD antibodies (ELISA, Assay A / Assay F)
Format: in vivo, mouse (Balb/c female)
Method in brief: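 Transient IgE response induced in female Balb/c mice (10–20 weeks) by a day-0 i.v. or s.c. injection of 100 μg each of anti-IgD FF1-4D5 and H.δA1. Serum IgE measured by sandwich ELISA (B1E3 capture, biotinylated R1E4 detection, avidin-biotin-HRP/ABTS), quantified against an IgE standard curve corrected for serum dilution.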

## CCCCC(C)(O)C/C=C/[C@H]1[C@H](O)CC(=O)[C@@H]1C/C=C\CCCC(=O)OC (mixture of isomers) [(±) methyl 11α,16-dihydroxy-16-methyl-9-oxoprosta-5Z,13E-dien-1-oate]
0.5 μg IP 4x daily days 3 and 4, day 7
  Serum IgE ± SD: 7813 ± 588 ng/mL
0.5 μg IP 4x daily days 3 and 4, day 8
  Serum IgE ± SD: 5699 ± 322 ng/mL
0.5 μg IP 4x daily days 3 and 4, day 9
  Serum IgE ± SD: 6097 ± 249 ng/mL
0.5 μg IP 4x daily days 3 and 4, day 11
  Serum IgE ± SD: 2049 ± 1201 ng/mL
0.5 μg IP 4x daily days 3 and 4, day -1 baseline before treatment
  Serum IgE ± SD: 839 ± 44 ng/mL
1.0 μg IP 3x daily days 3 and 4, day 7 (control 8850)
  Serum IgE ± SD: 4974 ± 1232 ng/mL
1.0 μg IP 3x daily days 3 and 4, day 8 (control 7557)
  Serum IgE ± SD: 4595 ± 663 ng/mL
1.0 μg IP 3x daily days 3 and 4, day 9 (control 6458)
  Serum IgE ± SD: 4602 ± 771 ng/mL
1.0 μg IP 3x daily days 3 and 4, day 11 (control 1466)
  Serum IgE ± SD: 1326 ± 241 ng/mL
1.0 μg IP 3x daily days 3 and 4, day -1 baseline before treatment
  Serum IgE ± SD: 808 ± 17 ng/mL
1.0 μg IP 4x daily days 3 and 4, day 7
  Serum IgE ± SD: 5549 ± 1044 ng/mL
1.0 μg IP 4x daily days 3 and 4, day 8
  Serum IgE ± SD: 3051 ± 475 ng/mL
1.0 μg IP 4x daily days 3 and 4, day 9
  Serum IgE ± SD: 4383 ± 832 ng/mL
1.0 μg IP 4x daily days 3 and 4, day 11
  Serum IgE ± SD: 1506 ± 794 ng/mL
1.0 μg IP 4x daily days 3 and 4, day -1 baseline before treatment
  Serum IgE ± SD: 1197 ± 272 ng/mL
2.0 μg IP 3x daily days 3 and 4, day 7
  Serum IgE ± SD: 5598 ± 1875 ng/mL
2.0 μg IP 3x daily days 3 and 4, day 8
  Serum IgE ± SD: 3057 ± 331 ng/mL
2.0 μg IP 3x daily days 3 and 4, day 9
  Serum IgE ± SD: 3644 ± 1179 ng/mL
2.0 μg IP 3x daily days 3 and 4, day 11
  Serum IgE ± SD: 1279 ± 377 ng/mL
2.0 μg IP 3x daily days 3 and 4, day -1 baseline before treatment
  Serum IgE ± SD: 800 ± 10 ng/mL
2.0 μg IP 4x daily days 3 and 4, day 7
  Serum IgE ± SD: 5483 ± 717 ng/mL
2.0 μg IP 4x daily days 3 and 4, day 8
  Serum IgE ± SD: 3236 ± 599 ng/mL
2 μg IP 4x daily days 3 and 4, day 8 (controls 14083-15890)
  Mean IgE ± SD: 5401 ± 883 ng/mL
2.0 μg IP 4x daily days 3 and 4, day 9
  Serum IgE ± SD: 3987 ± 401 ng/mL
2.0 μg IP 4x daily days 3 and 4, day 11
  Serum IgE ± SD: 1925 ± 410 ng/mL
2 μg IP 4x daily days 3 and 4, day -1 baseline before treatment
  Mean IgE ± SD: 1294 ± 232 ng/mL
2.0 μg IP 4x daily days 3 and 4, day -1 baseline before treatment
  Serum IgE ± SD: 1019 ± 206 ng/mL
2 μg IP, day 8
  reduction in IgE production: about 62%
5 μg IP
  IgE inhibition regardless of day of administration: regardless on what day the prostaglandin was administered IgE production (synthesis) was inhibited
  duration of IgE suppression: IgE production was still suppressed even after 11 days
  optimal day of administration for inhibition of IgE: IgE production is inhibited optimally when administered on day 3 and 4
5 μg IP 4x daily days 3 and 4, day 8 (controls 14083-15890)
  Mean IgE ± SD: 5076 ± 378 ng/mL
5 μg IP 4x daily days 3 and 4, day -1 baseline before treatment
  Mean IgE ± SD: 1292 ± 185 ng/mL
5 μg IP on days 1,2, day 8 (control 19549)
  Serum IgE ± SD: 9753 ± 4566 ng/mL
5 μg IP on days 1,2, day 9 (control 17498)
  Serum IgE ± SD: 10678 ± 8402 ng/mL
5 μg IP on days 1,2, day 11 (control 5317)
  Serum IgE ± SD: 2355 ± 709 ng/mL
5 μg IP on days 1,2, day -1 baseline before treatment
  Serum IgE ± SD: 1344 ± 135 ng/mL
5 μg IP on days 2,3, day 8 (control 19549)
  Serum IgE ± SD: 6233 ± 1948 ng/mL
5 μg IP on days 2,3, day 9 (control 17498)
  Serum IgE ± SD: 5328 ± 1811 ng/mL
5 μg IP on days 2,3, day 11 (control 5317)
  Serum IgE ± SD: 2139 ± 396 ng/mL
5 μg IP on days 2,3, day -1 baseline before treatment
  Serum IgE ± SD: 1293 ± 88 ng/mL
5 μg IP on days 3,4, day 8 (control 19549)
  Serum IgE ± SD: 4683 ± 1247 ng/mL
5 μg IP on days 3,4, day 9 (control 17498)
  Serum IgE ± SD: 4505 ± 1155 ng/mL
5 μg IP on days 3,4, day 11 (control 5317)
  Serum IgE ± SD: 1865 ± 361 ng/mL
5 μg IP on days 3,4, day -1 baseline before treatment
  Serum IgE ± SD: 1517 ± 166 ng/mL
5 μg IP on days 4,5, day 8 (control 19549)
  Serum IgE ± SD: 7969 ± 1821 ng/mL
5 μg IP on days 4,5, day 9 (control 17498)
  Serum IgE ± SD: 7145 ± 1763 ng/mL
5 μg IP on days 4,5, day 11 (control 5317)
  Serum IgE ± SD: 2316 ± 496 ng/mL
5 μg IP on days 4,5, day -1 baseline before treatment
  Serum IgE ± SD: 1644 ± 560 ng/mL
10.0 μg IP 3x daily days 3 and 4, day 7
  Serum IgE ± SD: 3223 ± 1717 ng/mL
10.0 μg IP 3x daily days 3 and 4, day 8
  Serum IgE ± SD: 1705 ± 859 ng/mL
10.0 μg IP 3x daily days 3 and 4, day 9
  Serum IgE ± SD: 1233 ± 601 ng/mL
10.0 μg IP 3x daily days 3 and 4, day 11
  Serum IgE ± SD: 1116 ± 276 ng/mL
10.0 μg IP 3x daily days 3 and 4, day -1 baseline before treatment
  Serum IgE ± SD: 849 ± 77 ng/mL
10.0 μg IP 4x daily days 3 and 4, day 7
  Serum IgE ± SD: 2092 ± 605 ng/mL
